≈ marks a conversion by molar mass, not a printed value.
Experiments:
[1] = test system: mESC-D3; design: method as in Scholz et al. [1999]; conditions: ZEBET value printed beside hanging drop differentiation result; ref Scholz et al. [1999]; cited from earlier work
[2] = Automated CellTiter-Glo luminescent cell viability (cytotoxicity) assay, 5 d; conditions: mouse
Procedure: The CellTiter-Glo® luminescent cell viability assay (Promega, Cat. No. G7573) was automated in 96-well format on the lab automation platform Fluent® (Tecan, Männedorf, Switzerland). The procedure allowed the testing of six compounds in mESC-D3 and NIH/3T3 cells in parallel. On the first day, PBS was dispensed into the peripheral wells of the assay plates (200 μl/well) using the Multiple Channel Arm (MCA). Mouse ES-D3 and NIH/3T3 cells were plated (50 μl/well, 1 × 10^4 cells/ml)) using the Flexible Channel Arm (FCA) and transported into the Cytomat™ 10 (Thermo Fisher Scientific) for incubation using the Robotic Gripper Arm (RGA). A 7-point dilution series of the test compounds and control solutions were prepared in PBS or DMSO (Carl Roth, Cat. No. HN47.1) under the laminar flow, transferred to a 96-well 0.5-ml Masterblock plate (Greiner bio-one, Cat. No. 786261) and placed on the worktable. On the Fluent the compounds were transferred to a 96-well 2-ml Masterblock plate (Greiner bio-one, Cat. No. 780271) and further diluted in growth media using the FCA. Two hours after cell plating compounds and controls were transferred to the assay plate with the FCA (150 μl/well) and transported back in the Cytomat 10. On day three of the assay, the media was exchanged using the MCA: old media was aspirated and dispensed into a 96-deep-well plate (“waste”), freshly prepared compound, and control solution was dispensed into the assay plate. After two more days of incubation, the cell viability was determined using the CellTiter-Glo assay. The assay plates were transported from the Cytomat 10 to the Carousel (Tecan) to adapt to room temperature. After 25 min the cell supernatant was removed partially (80 μl/well) and CellTiter-Glo reagent was dispensed (50 μl/well). The assay plate was placed on a shaker for 1 min and afterward incubated 25 min in the Carousel before the Luminescence signal was detected on the Infinite M1000 Pro plate reader (Tecan).
(§1) Toxicity data from the MTT and CellTiter-Glo Assay was normalized against the vehicle control (100% viability) and plotted against the logarithmic compound concentration.

[3] = test system: mESC-D3 and NIH/3T3 cells; conditions: manual murine EST assay; prediction model of Seiler and Spielmann 2011
[4] = test system: NIH/3T3; design: method as in Scholz et al. [1999]; conditions: ZEBET value, 7 d result; ref Scholz et al. [1999]; cited from earlier work
[5] = Manual human EST cytotoxicity assay, MTT, 5 d; conditions: human
Procedure: (§2) The cytotoxicity assessment with a reduced assay time of 5 days combined with either NADH- or ATP-based detection was also carried out with human induced pluripotent stem cells (hiPSCs). […] Furthermore, differences in the cytotoxicity effects between the hiPSCs and HDFfs were more pronounced than in the mouse cells. Similar to the cytotoxicity-based assay the overall variance in the data is reduced when viability data was obtained by an ATP-based read-out.
(§3) The MTT cell viability assay was performed as described (Seiler and Spielmann [2011]) with modifications. In brief, 96-well cell culture plates were coated with gelatin (0.1%) before plating mESC-D3. All peripheral wells of the assay plate were filled with 200 μl growth media (“blank”). Afterward, NIH/3T3 and mESC-D3 were plated in growth media (1 × 10^4 cells/ml, 50 μl/well). […] Vehicle (PBS) and positive control (5-fluorouracil) wells were also included on all assay plates. Three and 5 days after seeding the cell supernatant was replaced by freshly prepared compound solution (200 μl/well). Seven days after seeding the cell viability was detected. Therefore, the cell supernatant was aspirated from all wells, MTT solution (5 mg/ml) was added (20 μl/well) and the assay plate was incubated for 2 h at 37 °C and 5% CO2 in a humidified atmosphere. Afterward, all liquid was removed from the wells and MTT desorb solution (0.7% SDS in 2-propanol (Carl Roth, Cat. No. 9866.5), pre-warmed to 37 °C) was dispensed (130 μl/well). The assay plate was placed on a shaker for 15 min. Remaining precipitates were suspended by pipetting up and down with a multichannel pipette before measuring the absorption at 570 nm on a microtiter plate reader using 630 nm as a reference wavelength.
(§4) Figure S1: Step-wise evolution of the cytotoxicity assay towards the use of human cell lines. Related to Figure 2. Cytotoxicity assays were carried out with two compound sets on hiPSC line ZIPi013-E and HDFf, from which they were derived. […] A) 5 day MTT assay and manual handling. B) As in A), but using CellTiter-Glo® viability assay. All points in the graph represent the mean of 6 individual data points, including the standard error.

[6] = Manual human EST cytotoxicity assay, CellTiter-Glo, 5 d; conditions: human
Procedure: as §2
(§5) 96-well cell culture plates were coated with gelatin (0.1%) before plating mESC-D3. All peripheral wells of the assay plate were filled with 200 μl growth media. In order to assess compound toxicity on mESC-D3 and NIH/3T3 cells, cell suspensions of NIH/3T3, and mESC-D3 were prepared in growth media (1 × 10^4 cells/ml) and were transferred to all remaining wells (50 μl/well). A 7-point dilution series in growth media was prepared for each test compound and was transferred to the assay plate 2 h after cell seeding (150 μl/well). Afterward, the cells were incubated in a humidified atmosphere at 37 °C and 5% CO2. Three and 5 days after seeding the cell supernatant was replaced by freshly prepared compound solution (200 μl/well). Seven days after seeding the assay plate was taken out of the incubator and located at room temperature for 10 min, before cell supernatant was aspirated (80 μl/well) and CellTiter-Glo® reagent was dispensed (50 μl/well). The assay plate was placed on a shaker for 1 min and after another 10 min incubation at room temperature in the dark the luminescence signal was detected on a plate reader.
as §4

[7] = Manual CellTiter-Glo luminescent cell viability assay (7 d or 5 d); type: cell-based, mouse; conditions: mouse, in brackets the two individual experiments
Procedure: as §5, with “Seven days after seeding the assay plate was taken out of the incubator and located at room temperature for 10 min, before cell supernatant was aspirated (80 μl/well) and CellTiter-Glo® reagent was dispensed (50 μl/well).” left out
as §1

[8] = Manual MTT cell viability assay, 7 d; type: cell-based, mouse; conditions: mouse, manual, in brackets the two individual experiments
Procedure: as §3, §1

[9] = test system: mESC-D3; design: method as in Scholz et al. [1999]; conditions: ZEBET value, 7 d result; ref Scholz et al. [1999]; cited from earlier work
[10] = test system: mESC-D3; assay: Conventional mouse ES-D3 differentiation assay in hanging drop format (petri dish; cardiomyocyte contraction, day 10); type: cell-based; conditions: manual; beating cardiomyocytes at day 10; in brackets the two individual experiments
Procedure: Separate Petri dishes were used for each concentration of test compound, untreated control, and solvent control. […] The EB suspension was incubated for 2 days. On day five of the assay, a fresh compound dilution series was prepared in media and transferred into 24-well cell culture plates (1 ml/well, Greiner bio-one, Cat. No. 662641). A separate 24-well plate was used for each compound concentration, untreated control, and solvent control (24 wells per condition). One EB was transferred from the Petri dish into each well of the 24-well plate. After further 5 days of incubation (= day 10 of the assay), cardiomyocyte contraction was determined in each well under the light microscope.

[11] = mESC-D3 cells (mouse embryonic stem cells)
[12] = HDFf (human dermal fibroblasts of fetal origin)
[13] = mESC-D3 cells, read-out: Cytotoxicity assay CTG, 5 d IC50 mESC-D3
[14] = mESC-D3 cells, read-out: Cytotoxicity assay CTG, 7 d IC50 mESC-D3
[15] = mESC-D3 cells, read-out: Cytotoxicity assay MTT, 7 d IC50 mESC-D3

O=c1[nH]cc(F)c(=O)[nH]1 [5-Fluorouracil, 5-fluorouracil]
ID50 mESC-D3 (ZEBET) [1]: 0.0289 µg/mL (≈ 0.222 µM)
IC50 at 5 d ([2]; NIH/3T3 cells): 0.11 µg/mL (≈ 0.846 µM)
IC50 at 5 d [2, 11]: 0.0627 µg/mL (≈ 0.482 µM)
Compound classification [3]: strong embryotoxicity
IC50 NIH/3T3 (ZEBET) [4]: 0.17 µg/mL (≈ 1.31 µM)
IC50 at 5 d [5, 12]: 0.195 µg/mL (≈ 1.5 µM)
IC50 at 5 d ([5]; hiPSC line ZIPi013-E): 0.223 µg/mL (≈ 1.72 µM)
IC50 at 5 d [6, 12]: 0.186 µg/mL (≈ 1.43 µM)
IC50 at 5 d ([6]; hiPSC line ZIPi013-E): 0.0166 µg/mL (≈ 0.128 µM)
IC50 at 5 d ([7]; NIH/3T3 cells, read-out: Cytotoxicity assay CTG, 5 d IC50 NIH/3T3): 0.0958 µg/mL (≈ 0.736 µM)
IC50 at 7 d ([7]; NIH/3T3 cells, read-out: Cytotoxicity assay CTG, 7 d IC50 NIH/ 3T3): 0.128 µg/mL (≈ 0.984 µM)
IC50 at 5 d [7, 13]: 0.0493 µg/mL (≈ 0.379 µM)
IC50 at 7 d [7, 14]: 0.0681 µg/mL (≈ 0.524 µM)
IC50 at 7 d ([8]; NIH/3T3 cells, read-out: Cytotoxicity assay MTT, 7 d IC50 NIH/3T3): 0.116 µg/mL (≈ 0.892 µM)
IC50 at 7 d [8, 15]: 0.0395 µg/mL (≈ 0.304 µM)
IC50 mESC-D3 (ZEBET) [9]: 0.103 µg/mL (≈ 0.792 µM)

Cn1c(=O)c2c(ncn2C)n(C)c1=O [Caffeine, caffeine]
ID50 mESC-D3 (ZEBET) [1]: 185 µg/mL (≈ 953 µM)
IC50 at 5 d [2, 11]: 138 µg/mL (≈ 711 µM)
Differentiation assay in hanging drop (petri dish) ID50 mESC-D3 [10]: 130 (130; > 200) µg/ml
IC50 at 5 d [5, 12]: 358 µg/mL (≈ 1850 µM)
IC50 at 5 d ([5]; hiPSC line ZIPi013-E): 13.3 µg/mL (≈ 68.3 µM)
IC50 at 5 d [6, 12]: 412 µg/mL (≈ 2120 µM)
IC50 at 5 d ([6]; hiPSC line ZIPi013-E): 43.6 µg/mL (≈ 225 µM)
IC50 at 5 d [7, 13]: 172 µg/mL (≈ 886 µM)
IC50 at 7 d [7, 14]: 119 µg/mL (≈ 613 µM)
IC50 at 7 d [8, 15]: 152 µg/mL (≈ 783 µM)

Source: publication PMC8012336, “An automated and high-throughput-screening compatible pluripotent stem cell-based test platform for developmental and reproductive toxicity assessment of small molecule compounds” (Cell Biology and Toxicology, 2020)
